Assay results as given in ChEMBL document CHEMBL1201862, “PubChem BioAssay data set” (2004).
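96-well plates; 48 h exposure; 5 concentrations. Endpoints by linear interpolation between flanking doses. Not reached: highest tested concentration assigned. Abbreviation: GI50, concentration required for 50% inhibition of growth.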 Active and inactive are the calls of the source. No stated cut-off is given here; in the data, active = GI50 up to about 1.1 µM and inactive = higher.

Legend:
Assay in all cases: growth of human tumour cells (NCI), 48 h
[1] = system: OVCAR-5
[2] = system: NCI-H226
[3] = system: M14
[4] = system: SW-620
[5] = system: HOP-92
[6] = system: HCC 2998
[7] = system: A498
[8] = system: RXF 393
[9] = system: CAKI-1
[10] = system: A549
[11] = system: U-251
[12] = system: EKVX
[13] = system: HCT-15
[14] = system: NCI/ADR-RES
[15] = system: NCI-H522
[16] = system: HT-29
[17] = system: UACC-257
[18] = system: TK-10
[19] = system: SK-MEL-28
[20] = system: CCRF-CEM
[21] = system: RPMI-8226
[22] = system: PC-3
[23] = system: LOX IMVI
[24] = system: Hs-578T
[25] = system: 786-0
[26] = system: UO-31
[27] = system: IGROV-1
[28] = system: SF-539
[29] = system: SK-MEL-2
[30] = system: NCI-H23
[31] = system: NCI-H460
[32] = system: HCT-116
[33] = system: HL-60
[34] = system: SNB-75
[35] = system: DU-145
[36] = system: MOLT-4
[37] = system: K562
[38] = system: SNB-19
[39] = system: SF-295
[40] = system: SN12C
[41] = system: MDA-N
[42] = system: SR
[43] = system: SK-OV-3
[44] = system: HOP-62
[45] = system: BT-549
[46] = system: MCF7
[47] = system: MDA-MB-435
[48] = system: ACHN
[49] = system: SF-268
[50] = system: COLO 205
[51] = system: OVCAR-8
[52] = system: KM12
[53] = system: MDA-MB-231
[54] = system: Malme-3M
[55] = system: OVCAR-3
[56] = system: SK-MEL-5
[57] = system: UACC-62
[58] = system: T47D
[59] = system: OVCAR-4
[60] = system: HOP-18
[61] = system: M19-MEL

Structure (SMILES): CCOC(=O)c1nc2ccccc2nc1Nc1ccc(F)cc1
- GI50 [1]: > 59.3 µM (inactive)
- GI50 [2]: 17.9 µM (inactive)
- GI50 [3]: > 100 µM (inactive)
- GI50 [4]: > 100 µM (inactive)
- GI50 [5]: 15.7 µM (inactive)
- GI50 [6]: > 100 µM (inactive)
- GI50 [7]: 20.9 µM (inactive)
- GI50 [8]: 11.9 µM (inactive)
- GI50 [9]: 39.5 µM (inactive)
- GI50 [10]: 50.9 µM (inactive)
- GI50 [11]: 18.8 µM (inactive)
- GI50 [12]: 16.5 µM (inactive)
- GI50 [13]: 57.5 µM
- GI50 [14]: 16.7 µM (inactive)
- GI50 [15]: 20.4 µM (inactive)
- GI50 [16]: > 100 µM (inactive)
- GI50 [17]: > 100 µM (inactive)
- GI50 [18]: 30.6 µM (inactive)
- GI50 [19]: > 100 µM (inactive)
- GI50 [20]: > 100 µM (inactive)
- GI50 [21]: > 100 µM (inactive)
- GI50 [22]: > 86.9 µM (inactive)
- GI50 [23]: 79.4 µM (inactive)
- GI50 [24]: 10.2 µM (inactive)
- GI50 [25]: 17.9 µM (inactive)
- GI50 [26]: > 94.4 µM (inactive)
- GI50 [27]: 13.7 µM (inactive)
- GI50 [28]: 14.2 µM (inactive)
- GI50 [29]: 23.6 µM (inactive)
- GI50 [30]: 20.8 µM (inactive)
- GI50 [31]: 51.6 µM (inactive)
- GI50 [32]: 20.3 µM (inactive)
- GI50 [33]: > 100 µM (inactive)
- GI50 [34]: 3.52 µM (inactive)
- GI50 [35]: 42.2 µM (inactive)
- GI50 [36]: > 100 µM (inactive)
- GI50 [37]: > 100 µM (inactive)
- GI50 [38]: 12.1 µM (inactive)
- GI50 [39]: 12.9 µM (inactive)
- GI50 [40]: 40.6 µM (inactive)
- GI50 [41]: > 100 µM (inactive)
- GI50 [42]: > 100 µM (inactive)
- GI50 [43]: 11.7 µM (inactive)
- GI50 [44]: 15.8 µM (inactive)
- GI50 [45]: 16.2 µM (inactive)
- GI50 [46]: > 60.8 µM (inactive)
- GI50 [47]: > 100 µM (inactive)
- GI50 [48]: 27.5 µM (inactive)
- GI50 [49]: 8.39 µM (inactive)
- GI50 [50]: > 100 µM (inactive)
- GI50 [51]: 11.5 µM (inactive)
- GI50 [52]: > 100 µM (inactive)
- GI50 [53]: 8.13 µM (inactive)
- GI50 [54]: > 100 µM (inactive)
- GI50 [55]: > 72.4 µM (inactive)
- GI50 [56]: > 100 µM (inactive)
- GI50 [57]: > 100 µM (inactive)
- GI50 [58]: 22.9 µM (inactive)
- GI50 [59]: > 100 µM (inactive)

Structure (SMILES): CCCCCCCCCc1cc(O)c(O)cc1CCCCCCCCC
- GI50 [1]: > 10 µM (inactive)
- GI50 [2]: > 10 µM (inactive)
- GI50 [3]: > 10 µM (inactive)
- GI50 [4]: > 10 µM (inactive)
- GI50 [5]: > 10 µM (inactive)
- GI50 [6]: > 10 µM (inactive)
- GI50 [7]: > 10 µM (inactive)
- GI50 [8]: > 10 µM (inactive)
- GI50 [9]: > 10 µM (inactive)
- GI50 [10]: > 10 µM (inactive)
- GI50 [11]: > 10 µM (inactive)
- GI50 [12]: > 10 µM (inactive)
- GI50 [13]: > 10 µM
- GI50 [14]: > 10 µM (inactive)
- GI50 [15]: > 10 µM (inactive)
- GI50 [16]: > 10 µM (inactive)
- GI50 [17]: > 10 µM (inactive)
- GI50 [18]: > 10 µM (inactive)
- GI50 [19]: > 10 µM (inactive)
- GI50 [20]: > 10 µM (inactive)
- GI50 [21]: > 10 µM (inactive)
- GI50 [22]: > 10 µM (inactive)
- GI50 [23]: > 10 µM (inactive)
- GI50 [24]: > 10 µM (inactive)
- GI50 [25]: > 10 µM (inactive)
- GI50 [26]: > 10 µM (inactive)
- GI50 [27]: > 10 µM (inactive)
- GI50 [28]: > 10 µM (inactive)
- GI50 [29]: > 10 µM (inactive)
- GI50 [30]: > 10 µM (inactive)
- GI50 [31]: > 10 µM (inactive)
- GI50 [32]: > 10 µM (inactive)
- GI50 [33]: > 10 µM (inactive)
- GI50 [34]: > 10 µM (inactive)
- GI50 [35]: > 10 µM (inactive)
- GI50 [36]: > 10 µM (inactive)
- GI50 [37]: > 10 µM (inactive)
- GI50 [38]: > 10 µM (inactive)
- GI50 [39]: > 10 µM (inactive)
- GI50 [40]: > 10 µM (inactive)
- GI50 [41]: > 10 µM (inactive)
- GI50 [42]: > 10 µM (inactive)
- GI50 [43]: > 10 µM (inactive)
- GI50 [44]: > 10 µM (inactive)
- GI50 [45]: > 10 µM (inactive)
- GI50 [46]: > 10 µM (inactive)
- GI50 [47]: > 10 µM (inactive)
- GI50 [48]: > 10 µM (inactive)
- GI50 [49]: > 10 µM (inactive)
- GI50 [50]: > 10 µM (inactive)
- GI50 [51]: > 10 µM (inactive)
- GI50 [52]: > 10 µM (inactive)
- GI50 [53]: > 10 µM (inactive)
- GI50 [54]: > 10 µM (inactive)
- GI50 [55]: > 10 µM (inactive)
- GI50 [56]: > 10 µM (inactive)
- GI50 [57]: > 10 µM (inactive)
- GI50 [58]: > 10 µM (inactive)
- GI50 [59]: > 10 µM (inactive)

Structure (SMILES): O=C1C=C[C@@]23C[C@@H](NC4=C2C2=NCCc5c[nH]c(c52)C4=O)SC3=C1
- GI50 [4]: 3.15 µM (inactive)
- GI50 [10]: 14.6 µM (inactive)
- GI50 [60]: 16.7 µM (inactive)
- GI50 [61]: 2.03 µM (inactive)
- GI50 [30]: 3.49 µM (inactive)
- GI50 [34]: 19.8 µM (inactive)
- GI50 [35]: 18.2 µM (inactive)
- GI50 [37]: 4.74 µM (inactive)
- GI50 [46]: 3.82 µM (inactive)
